Data on five molecules can be found in article PMC6591177, “Small Molecule IL-36γ Antagonist as a Novel Therapeutic Approach for Plaque Psoriasis” (Scientific Reports, 2019).

The subject of data set [1] is HaCaT cells. Briefly: Cell viability (Cell Titer-Glo) counter screen. It is filed as cell-based, human. The protocol: The IL-8 release assays were miniaturized for HTS hit follow-up. Frozen aliquots of HaCaT cells were thawed, added to complete media, mixed, spun down, resuspended in fresh media, and dispensed using the Multidrop384 into black, clear-bottom 384 well plates at a final density of 4000 cells/well. After a 24 h recovery period at 37 °C/5% CO2, the cell plates were rinsed twice with 40 μL/well fresh media. The Biomek FX workstation was then used to add 10 μL/well compounds. Cell plates were then returned to 37 °C for 15 min incubation, followed by the addition of 10 μl/well of IL-36γ (40 ng/ml final). After an additional 5 h of incubation at 37 °C, 5 μl/well of cell supernatant was removed with the Biomek FX and transferred to a 384 well Proxy Plate for IL-8 detection using the HTRF kit from Cisbio. For the IL-1β evoked release of IL-8, the same protocol was followed, but with a final concentration of 1 ng/mL IL-1β and an overnight incubation instead of 5 h. Cell viability was assessed using Cell Titer-Glo (Promega) according to the manufacturers’ instructions.
(In ATP-based viability assays light output follows the ATP content of the culture.)

The test system of data set [2] is human IL-36γ evoked CXCL1 release from Human HaCaT cells. Nature of the data set: human IL-36γ evoked CXCL1 release, human HaCaT cells. It is filed as cell-based. The note with it: ± S.D. The protocol: (§1) The immortalized human keratinocyte cell line HaCaT and mouse fibroblast NIH-3T3 cell line were maintained in culture in DMEM with 10% fetal bovine serum and 1% penicillin/streptomycin added (Sigma). Cells were seeded in 96-well tissue culture plates (Corning) at 25,000 cells per well and allowed to adhere and recover overnight at 37 °C in an incubator. Cells were rinsed with PBS (Sigma) and treated with cytokines diluted in 200 μL/well of the medium (DMEM with 0.5% FBS and 1% penicillin/streptomycin) as indicated. In inhibition mode, the agonist concentration used was at the EC80 for chemokine production and the cells were pre-treated with inhibitors for 30 min prior to adding the agonist. After 24 h of treatment, supernatants were collected and IL-8 and CXCL1[28] levels were assessed using a custom immunoassay (Meso Scale Discovery). EC50/IC50 values were estimated from a four-parameter logistic fit using Prism software (GraphPad).

For data set [3], the system named is IL-36γ evoked CXCL1 release from Mouse NIH-3T3 cells. Briefly: IL-36γ evoked CXCL1 release, mouse NIH-3T3 cells. Conditions: human IL-36γ evoked CXCL1 release, ± S.D. It is filed as cell-based. The protocol:
as §1

For the next data set, the target named is T1, human IL-36α (Homo sapiens, UniProt Q9UHA7).
T1 construct: using recombinant truncated proteins
T1 sequence (Q9UHA7 6-158): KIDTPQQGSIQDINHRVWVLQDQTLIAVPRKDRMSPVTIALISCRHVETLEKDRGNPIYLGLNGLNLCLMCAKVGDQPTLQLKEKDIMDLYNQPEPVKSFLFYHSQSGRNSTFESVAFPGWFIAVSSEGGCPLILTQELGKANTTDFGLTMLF
Briefly: Thermal shift assay / affinity, human IL-36α. The data set is classed as binding. The note with it: thermal shift assay at 100 μM (Supplementary Fig. 4). The protocol: (§2) Thermal shift assays[30] were performed on a Roche LightCycler 480 instrument using Sypro Orange Dye (Invitrogen). Reactions consisted of 0.5–2 µM purified recombinant protein in PBS, pH 7.4, a 1/500 dilution of the stock Sypro Orange reagent, and 100 µM test compounds, resulting in a final DMSO concentration of 1%. The samples were heated from 20 °C to 95 °C at a rate of 0.25 °C per second.

A further data set concerns the target T2, human IL-36γ (Homo sapiens, UniProt Q9NZH8).
T2 construct: His6-SUMO-human IL-36γ (18–169); His6-SUMO (N, cleaved yes); made in house; host or cells: E. coli BL21 (DE3)
T2 sequence (Q9NZH8 18-169): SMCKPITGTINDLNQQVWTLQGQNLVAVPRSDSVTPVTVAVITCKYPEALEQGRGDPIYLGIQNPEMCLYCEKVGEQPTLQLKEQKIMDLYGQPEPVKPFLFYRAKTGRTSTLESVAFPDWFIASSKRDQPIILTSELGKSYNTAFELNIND
Briefly: Thermal shift assay, human IL-36γ. The data set is classed as binding. Conditions: 100 μM compound; read-out: increase of melting temperature of human IL-36γ. The protocol:
as §2

For data set [4], the system named is IL-1β evoked IL-8 release from HaCaT cells. Briefly: IL-1β evoked IL-8 release assay in HaCaT cells. The data set is classed as cell-based, human. The protocol:
as §1
(§3) The IL-8 release assays were miniaturized for HTS hit follow-up. Frozen aliquots of HaCaT cells were thawed, added to complete media, mixed, spun down, resuspended in fresh media, and dispensed using the Multidrop384 into black, clear-bottom 384 well plates at a final density of 4000 cells/well. […] Cell viability was assessed using Cell Titer-Glo (Promega) according to the manufacturers’ instructions.

The next data set concerns the target T3, IL-36 receptor (Homo sapiens, UniProt Q9HB29).
T3 chain: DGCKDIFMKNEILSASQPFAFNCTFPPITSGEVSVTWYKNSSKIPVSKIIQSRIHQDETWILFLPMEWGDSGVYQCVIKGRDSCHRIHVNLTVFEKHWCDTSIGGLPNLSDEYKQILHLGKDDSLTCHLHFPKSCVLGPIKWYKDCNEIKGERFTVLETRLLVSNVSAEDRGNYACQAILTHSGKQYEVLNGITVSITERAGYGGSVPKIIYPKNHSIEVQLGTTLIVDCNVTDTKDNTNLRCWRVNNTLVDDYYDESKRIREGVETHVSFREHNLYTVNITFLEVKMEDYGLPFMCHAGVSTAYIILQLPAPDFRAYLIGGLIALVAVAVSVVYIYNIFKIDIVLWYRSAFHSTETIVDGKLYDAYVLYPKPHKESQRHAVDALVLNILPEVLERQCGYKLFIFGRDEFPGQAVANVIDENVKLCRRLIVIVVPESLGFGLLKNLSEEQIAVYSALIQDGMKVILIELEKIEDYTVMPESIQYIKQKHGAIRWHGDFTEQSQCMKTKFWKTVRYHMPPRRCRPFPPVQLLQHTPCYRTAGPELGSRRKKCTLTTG
Briefly: IL-8 release assay in HaCaT cells.

Data set [5] deals with T4, human IL-36R/IL-1RAcP extracellular domain (ECD) knob-in-hole Fc (human, UniProt Q9HB29 20-335; Q9NPH3 21-367).
T4 construct: human IL-36 receptor subunit (IL-36R), extracellular domain; human IL-1RAcP co-receptor subunit, extracellular domain; Both proteins were engineered with an Fc 'knob-in-hole' to force heterodimerisation; also called hIL-36R/IL-1RAcP ECD knob-in-hole Fc; human IL-36R/IL-1RAcP ECD Fc heterodimer; not shown: His tag (from the nickel column and the Tb-anti-His detection)
T4 sequence (looked up) 1: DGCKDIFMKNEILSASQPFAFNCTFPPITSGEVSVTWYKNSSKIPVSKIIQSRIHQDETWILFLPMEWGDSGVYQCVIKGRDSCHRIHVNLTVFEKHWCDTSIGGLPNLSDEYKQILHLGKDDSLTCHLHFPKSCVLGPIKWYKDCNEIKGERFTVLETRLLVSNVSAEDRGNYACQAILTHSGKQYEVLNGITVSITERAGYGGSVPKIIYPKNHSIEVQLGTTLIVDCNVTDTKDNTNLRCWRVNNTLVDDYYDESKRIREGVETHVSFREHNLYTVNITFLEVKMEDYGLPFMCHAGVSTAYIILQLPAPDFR
T4 sequence (looked up) 2: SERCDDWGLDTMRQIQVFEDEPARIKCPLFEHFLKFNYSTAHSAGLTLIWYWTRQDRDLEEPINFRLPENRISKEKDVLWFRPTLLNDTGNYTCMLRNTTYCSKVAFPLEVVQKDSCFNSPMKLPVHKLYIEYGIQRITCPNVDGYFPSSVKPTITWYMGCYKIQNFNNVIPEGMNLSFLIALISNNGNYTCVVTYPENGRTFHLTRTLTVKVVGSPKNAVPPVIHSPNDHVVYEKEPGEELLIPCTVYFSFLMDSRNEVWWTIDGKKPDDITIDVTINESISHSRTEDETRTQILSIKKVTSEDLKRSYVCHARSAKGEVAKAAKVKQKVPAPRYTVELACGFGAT
Nature of the data set: AlphaScreen or HTRF; TR-FRET, competitive mode: unlabeled human IL-36γ or IL-36Ra titrated against 6 nM Alexa 488 human IL-36γ, receptor heterodimer 1.5 μg/mL, 6 nM Tb-anti-His antibody; Ki by the Cheng-Prusoff equation. The note with it: both partners purified. Background: In Alpha technology, singlet oxygen from a donor bead excites a nearby acceptor bead.

The target of data set [6] is T4, human IL-36R/IL-1RAcP extracellular …. Nature of the data set: AlphaScreen or HTRF; TR-FRET, direct binding: receptor heterodimer 1.5 μg/mL with 6 nM Tb-anti-His antibody, Alexa 488 IL-36γ titrated; 1% BSA in 1X PBS; overnight at 4 °C, read at room temperature; ratio 520 nm/495 nm. The note with it: both partners purified.
Data set [7] has as its system IL-36γ evoked IL-8 release from HaCaT cells. Briefly: IL-36γ evoked IL-8 release assay from HaCaT cells. The data set is classed as cell-based, human. Conditions: agonist mode, n = 4. The protocol: as §1, §3
Data set [8] relates to HaCaT cells. Nature of the data set: mouse IL-36γ induction of CXCL1 release from HaCaT cells. It is filed as cell-based, human. The note with it: agonist mode. The protocol: as §1

With `COC(c1ccccc1)(c1ccccc1)C(Oc1nc(C)cc(-c2ccc(C)c(N)c2)n1)C(=O)O` (centres unmarked) [Compound A-706], the cellular toxicity entry in the data set with HaCaT cells [1] is “no activity in the hIL-1β induced IL-8 release assay or cellular toxicity”. Further, the values for the inhibition constant Ki in data set [2] and in [3] were 121 ± 32 nM and 181 ± 54 nM, respectively. Besides, at human IL-36α, the “binding / affinity to human IL-36α” value is reported as “do not bind”. For the same molecule, on human IL-36γ, the ΔTm at 100 µM amounted to 5.4 °C. Moreover, in data set [4], the “activity in the hIL-1β induced IL-8 release assay” value is recorded as “no activity”.

B1: human IL-36Ra (2–155) (ligand, UniProt Q9UBH0 2-155, looked up)
chain: VLSGALCFRMKDSALKVLYLHNNQLLAGGLHAGKVIKGEEISVVPNRWLDASLSPVILGVQGGSQCLSCGVGQEPTLTLEPVNIMELYLGAKESKSFTFYRRDMGLTSSFESAAYPGWFLCTVPEADQPVRLTQLPENGGWNAPITDFYFQQCD
notes: human IL-36 receptor antagonist (IL-36Ra), residues 2-155; also called hIL-36Ra; recombinant soluble hIL-36Ra; source: E. coli BL21 (DE3), purified (nickel column, ULP1 cleavage, Superdex 75 gel filtration); not shown: His6, N-terminal, cleaved; SUMO, N-terminal, cleaved
As for B1, the Ki (usually the equilibrium dissociation constant of an inhibitor or competing ligand from its target) in the data set with IL-36 receptor was 0.6 nM; in data set [5], 2 nM.

B2: N-terminal labeled Alexa 488 human IL-36γ (ligand, UniProt Q9NZH8 18-169, looked up)
chain: T2 sequence (Q9NZH8 18-169)
modifications: Alexa Fluor 488 (N-hydroxysuccinimidyl ester); called N-terminal labeled
notes: human IL-36γ, residues 18-169; Same protein as m3, with the dye; also called Alexa-488 labeled hIL-36γ; NHS-AlexaFluor-488 conjugated human IL-36γ; not shown: His6, N-terminal, cleaved; SUMO, N-terminal, cleaved
For B2, the concentration for a half-maximal effect (EC50) (in general, the midpoint of the concentration-response curve) in data set [6] came out at 0.3 nM.

B3: human IL-36γ: recombinant human IL-36γ (18–169) cytokine, IL-36R agonist (protein)
chain: T2 sequence (Q9NZH8 18-169)
modifications: left off: His6, N-terminal, cleaved | SUMO, N-terminal, cleaved
notes: recombinant human IL-36γ (18–169) cytokine, IL-36R agonist
Turning to B3, the 50% effective concentration (EC50) in data set [7] came to 0.2 ± 0.1 nM.

B4: mouse IL-36γ: mouse IL-36γ cytokine (protein, UniProt Q8R460 13-164, looked up)
Interleukin-36 gamma: GRETPDFGEVFDLDQQVWIFRNQALVTVPRSHRVTPVSVTILPCKYPESLEQDKGIAIYLGIQNPDKCLFCKEVNGHPTLLLKEEKILDLYHHPEPMKPFLFYHTRTGGTSTFESVAFPGHYIASSKTGNPIFLTSKKGEYYNINFNLDIKS
For the molecule B4, the “induction of CXCL1 release from HaCaT cells” value in the data set with HaCaT cells [8] is given as “cannot induce CXCL1 release”.
